The text below walks through data of ChEMBL document CHEMBL1201862, “PubChem BioAssay data set” (2004).

Structures are written as SMILES.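 Step 1: Grow cells in 96-well plates. Step 2: Expose to compound for 48 hours at 5 concentrations. Step 3: Interpolate endpoints linearly; if unreached, use highest concentration. Here, GI50 denotes the concentration required for 50% inhibition of growth.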 Activity calls are given as the source filed them. Cut-off read from the data, not from the text of the source: active = GI50 up to about 1.1 µM and inactive = higher.

Some test systems named below: RPMI-8226; NCI-H522; SNB-19; Malme-3M; NCI-H23; SK-MEL-28; HCT-15; HOP-92; SR; NCI-H460; HL-60; 786-0; LOX IMVI; EKVX; OVCAR-8; MOLT-4; DU-145; MDA-MB-231; PC-3.
Common to all, as to experiment: NCI-60 cell line screen, 48 h

Regarding `COc1ccc2[nH]cc(CCNC(=O)[C@](O)(Cc3cn(C)c4ccccc34)[C@@]3(O)OCC(O)C3O)c2c1` (stereo partly drawn), the GI50 is 39.4 µM (inactive) with RPMI-8226; > 100 µM (inactive) in the test on NCI-H522; > 100 µM (inactive) with SNB-19; > 100 µM (inactive) with Malme-3M; > 100 µM (inactive) in the test with NCI-H23; > 100 µM (inactive) in the test with SK-MEL-28. Moreover, the GI50 in the test with HCT-15 was > 100 µM; in the test on HOP-92 it was 50.2 µM (inactive); in the test with SR it was > 100 µM (inactive); in the test on NCI-H460, 77.4 µM (inactive); with HL-60, 32.1 µM (inactive); in the test on 786-0, > 100 µM (inactive). Besides, the GI50 in the test with LOX IMVI was > 100 µM (inactive); with EKVX, > 100 µM (inactive); with OVCAR-8, > 100 µM (inactive); in the test on MOLT-4 it was 37 µM (inactive).

For the molecule `Oc1ccc2c(c1)OCC1(O)Cc3cc(O)c(O)cc3C21` (stereo not drawn), the GI50 in the test on RPMI-8226 is 26.5 µM (inactive); with NCI-H522, 21.3 µM (inactive); with SNB-19, 28.7 µM (inactive); with Malme-3M, 16.9 µM (inactive); in the test on NCI-H23, 18.1 µM (inactive); in the test on SK-MEL-28, 17.5 µM (inactive). The GI50 in the test with HCT-15 was 20.2 µM; with HOP-92, 21.6 µM (inactive); in the test with SR, 30.8 µM (inactive); in the test on NCI-H460 it was 27.8 µM (inactive); with HL-60, 25.6 µM (inactive); with 786-0, 19.5 µM (inactive). Besides, the GI50 with LOX IMVI was 19.4 µM (inactive); with EKVX it was 27 µM (inactive); with OVCAR-8 it was 21.9 µM (inactive); in the test on MOLT-4 it was 24.4 µM (inactive).

Turning to `COc1cc2c(c(O)c1O)-c1ccc(OC)c(=O)cc1C(NC(C)=O)CC2` (stereo not drawn), the GI50 in the test with RPMI-8226 is 3.86 µM (inactive); in the test with NCI-H522, 2.42 µM (inactive); in the test with SNB-19, 5.07 µM (inactive); in the test with Malme-3M it was 16.5 µM (inactive); with NCI-H23, 5.06 µM (inactive); in the test with SK-MEL-28 it was 24.8 µM (inactive). Moreover, the GI50 in the test with HCT-15 was > 95.1 µM; in the test on HOP-92 it was 4.59 µM (inactive); with SR it was 5.69 µM (inactive); in the test on NCI-H460, 25.2 µM (inactive); with HL-60 it was 2.21 µM (inactive); in the test with 786-0, 16.6 µM (inactive). Also, the GI50 with LOX IMVI was 6.82 µM (inactive); in the test with EKVX it was 39 µM (inactive); in the test with OVCAR-8, 15.6 µM (inactive); in the test on MOLT-4, 5.5 µM (inactive).

In the case of `N#Cc1c2ccc([N+](=O)[O-])cc2c(=O)n2c1sc1ccc(C(F)(F)F)cc12`, the GI50 in the test with RPMI-8226, with DU-145, with NCI-H522, with SNB-19, in the test with Malme-3M and in the test on NCI-H23 was > 100 µM (inactive) throughout. In addition, the GI50 in the test on SK-MEL-28 is > 100 µM (inactive); in the test on HCT-15, > 100 µM; with HOP-92, > 100 µM (inactive); with NCI-H460 it was > 100 µM (inactive); in the test with 786-0 it was > 100 µM (inactive); with LOX IMVI it was > 100 µM (inactive). The GI50 in the test with EKVX, with OVCAR-8, with MOLT-4 and in the test on MDA-MB-231 was > 100 µM (inactive) each time.

Take `CN(C)C(=O)N1N[C@H](c2ccccc2)[C@@H]1c1ccccc1`: the GI50 in the test on RPMI-8226, with DU-145, in the test on NCI-H522, in the test on SNB-19, in the test with Malme-3M and with NCI-H23 was > 100 µM (inactive) throughout. The GI50 in the test on SK-MEL-28 is > 100 µM (inactive); in the test on HCT-15, > 100 µM; with HOP-92, > 100 µM (inactive); with 786-0, > 100 µM (inactive); in the test with LOX IMVI, > 100 µM (inactive); in the test on EKVX, > 100 µM (inactive). Further, the GI50 with OVCAR-8 is > 100 µM (inactive); with MOLT-4, > 100 µM (inactive); in the test on PC-3, 48 µM (inactive); in the test on MDA-MB-231, > 100 µM (inactive).

For `N#Cc1c2c(c(Nc3cccc(C(F)(F)F)c3)n3c1nc1ccccc13)CCCC2`, the GI50 with RPMI-8226 was 19.4 µM (inactive); in the test with DU-145 it was 21.3 µM (inactive); with NCI-H522, 1.47 µM (inactive); with Malme-3M, 21.3 µM (inactive); with NCI-H23, 20.9 µM (inactive); in the test on SK-MEL-28, 18.2 µM (inactive). In addition, the GI50 with HCT-15 is 39.2 µM; with HOP-92, 3.99 µM (inactive); with NCI-H460, 23.1 µM (inactive); with 786-0 it was 13.1 µM (inactive); with LOX IMVI, 14.8 µM (inactive); with EKVX it was 20.8 µM (inactive). The results for the GI50 in the test on OVCAR-8, in the test with MOLT-4 and in the test on MDA-MB-231 were 15.1 µM (inactive), 15.2 µM (inactive) and 17.5 µM (inactive), respectively.

With `Nc1ccccc1C(=O)/C=C/c1c(O)ccc2ccccc12`, the GI50 with RPMI-8226, with NCI-H522, in the test with SNB-19, with Malme-3M, in the test on NCI-H23 and in the test on SK-MEL-28 was > 100 µM (inactive) throughout. Moreover, the GI50 in the test with HCT-15 is > 100 µM; with HOP-92, > 100 µM (inactive); with SR, > 100 µM (inactive); in the test with NCI-H460, > 100 µM (inactive); in the test with HL-60 it was > 100 µM (inactive); in the test on 786-0, > 100 µM (inactive). The GI50 in the test on LOX IMVI was 19.2 µM (inactive); in the test with EKVX it was > 100 µM (inactive); in the test on OVCAR-8, > 100 µM (inactive); with MOLT-4 it was > 100 µM (inactive).

Turning to `COc1ccc(C(=O)C(c2ccc(OCc3ccccc3)cc2)c2ccc(OCc3ccccc3)cc2)cc1`, the GI50 with RPMI-8226, with NCI-H522, in the test on SNB-19, in the test on Malme-3M, with NCI-H23 and in the test on SK-MEL-28 was > 100 µM (inactive) in each case. The GI50 in the test on HCT-15 was > 100 µM; in the test with HOP-92 it was > 100 µM (inactive); in the test on SR it was > 100 µM (inactive); in the test with NCI-H460, > 100 µM (inactive); in the test with HL-60 it was > 100 µM (inactive); in the test with 786-0 it was > 100 µM (inactive). Besides, the GI50 in the test on LOX IMVI, with EKVX, with OVCAR-8 and in the test on MOLT-4 was > 100 µM (inactive) each time.

Take `CCCCCCCC(=O)OCC1OC(OC)C(NC(=O)N(CCCl)N=O)C(O)C1O` (stereo not drawn): the GI50 in the test with RPMI-8226 was 16.3 µM (inactive); with NCI-H522 it was 11.2 µM (inactive); with SNB-19 it was 14.5 µM (inactive); in the test on Malme-3M, 13.3 µM (inactive); with NCI-H23, 8.28 µM (inactive); in the test with SK-MEL-28, 33.3 µM (inactive). The GI50 in the test on HCT-15 was 3.27 µM; in the test with HOP-92, 1.36 µM (inactive); with SR, 0.272 µM (active); in the test on NCI-H460, 3.46 µM (inactive); with HL-60, 4.14 µM (inactive); in the test with 786-0 it was 3.92 µM (inactive). Also, the GI50 with LOX IMVI was 0.908 µM (active); with EKVX it was 30.6 µM (inactive); in the test with OVCAR-8 it was 18.2 µM (inactive); with MOLT-4, 3.05 µM (inactive).
